Experimental data from patent US11026426B2, “Oxadiazole and phenol derivatives as antibacterial and/or herbicidal agents” (NORTHERN ILLINOIS RESEARCH FOUNDATION, priority 2017, dated 2021).
Read-outs that look alike come from different tables or passages of the source.

How the values were obtained:
Assay type in all cases: cell-based
Klebsiella pneumonia = assay: Antibacterial assay zone of inhibition Kp
Corynebacterium xerosis = assay: Antibacterial assay zone of inhibition Cx
Mycobacterium smegmatis = assay: Antibacterial assay zone of inhibition Ms
[1] = system: Corynebacterium pseudodiphtheriae; assay: Antibacterial assay zone of inhibition Cp
Micrococcus luteus = assay: Antibacterial assay zone of inhibition Ml
Bacillus cereus = assay: Antibacterial assay zone of inhibition Bc
Pseudomonas aeruginosa = assay: Antibacterial assay zone of inhibition Pa
Escherichia coli = assay: Antibacterial assay zone of inhibition Ec
[2] = system: Burkholderia thailandensis

Compound | Antibacterial Kp zone of inhibition (Klebsiella pneumonia; 0.1 mM) | Antibacterial Kp zone of inhibition (Klebsiella pneumonia; 0.5 mM) | Antibacterial Kp zone of inhibition (Klebsiella pneumonia; 1 mM) | Antibacterial Cx zone of inhibition (Corynebacterium xerosis; 0.1 mM) | Antibacterial Cx zone of inhibition (Corynebacterium xerosis; 0.5 mM) | Antibacterial Cx zone of inhibition (Corynebacterium xerosis; 1 mM) | Antibacterial Ms zone of inhibition (Mycobacterium smegmatis; 0.1 mM) | Antibacterial Ms zone of inhibition (Mycobacterium smegmatis; 0.5 mM) | Antibacterial Ms zone of inhibition (Mycobacterium smegmatis; 1 mM) | Antibacterial Cp zone of inhibition ([1]; 0.1 mM) | Antibacterial Cp zone of inhibition ([1]; 0.5 mM) | Antibacterial Cp zone of inhibition ([1]; 1 mM) | Antibacterial Ml zone of inhibition (Micrococcus luteus; 0.1 mM) | Antibacterial Ml zone of inhibition (Micrococcus luteus; 0.5 mM) | Antibacterial Ml zone of inhibition (Micrococcus luteus; 1 mM) | Antibacterial Bc zone of inhibition (Bacillus cereus; 0.1 mM) | Antibacterial Bc zone of inhibition (Bacillus cereus; 0.5 mM) | Antibacterial Bc zone of inhibition (Bacillus cereus; 1 mM) | Antibacterial Pa zone of inhibition (Pseudomonas aeruginosa; 0.1 mM) | Antibacterial Pa zone of inhibition (Pseudomonas aeruginosa; 0.5 mM) | also measured
COc1ccc(OCc2nnc(-c3nc4ccccc4s3)o2)cc1 [HGN-833] | 0 millimeters | 0 millimeters | 0 millimeters | 0 millimeters | 0 millimeters | 15 millimeters | 0 millimeters | 0 millimeters | 0 millimeters | 0 millimeters | 0 millimeters | 14 millimeters | 0 millimeters | 0 millimeters | 13 millimeters | 0 millimeters | 10 millimeters | 15 millimeters | 0 millimeters | 0 millimeters | Antibacterial Pa zone of inhibition (Pseudomonas aeruginosa; 1 mM): 0 millimeters; Antibacterial Ec zone of inhibition (Escherichia coli; 0.1 mM): 0 millimeters; Antibacterial Ec zone of inhibition (Escherichia coli; 0.5 mM): 0 millimeters; Antibacterial Ec zone of inhibition (Escherichia coli; 1 mM): 0 millimeters; Antibacterial Bt zone of inhibition ([2]; 0.1 mM): 0 12 17 millimeters; Antibacterial Bt zone of inhibition ([2]; 0.5 mM): 0 12 17 millimeters; Antibacterial Bt zone of inhibition ([2]; 1 mM): 0 12 17 millimeters
Clc1ccc(OCc2nnc(-c3nc4ccccc4s3)o2)cc1Cl [HGN-834] | 0 millimeters | 0 millimeters | 0 millimeters | 0 millimeters | 0 millimeters | 0 millimeters | 0 millimeters | 0 millimeters | 0 millimeters | 0 millimeters | 0 millimeters | 0 millimeters | 0 millimeters | 0 millimeters | 0 millimeters | 0 millimeters | 11 millimeters | 18 millimeters | 0 millimeters | 0 millimeters | Antibacterial Pa zone of inhibition (Pseudomonas aeruginosa; 1 mM): 0 millimeters; Antibacterial Ec zone of inhibition (Escherichia coli; 0.1 mM): 0 millimeters; Antibacterial Ec zone of inhibition (Escherichia coli; 0.5 mM): 0 millimeters; Antibacterial Ec zone of inhibition (Escherichia coli; 1 mM): 0 millimeters; Antibacterial Bt zone of inhibition ([2]; 0.1 mM): 0 millimeters; Antibacterial Bt zone of inhibition ([2]; 0.5 mM): 0 millimeters; Antibacterial Bt zone of inhibition ([2]; 1 mM): 0 millimeters
Clc1cccc(OCc2nnc(-c3nc4ccccc4s3)o2)c1 [HGN-835] | 0 millimeters | 14 millimeters | 18 millimeters | 0 millimeters | 0 millimeters | 0 millimeters | 0 millimeters | 0 millimeters | 0 millimeters | 0 millimeters | 0 millimeters | 0 millimeters | 0 millimeters | 0 millimeters | 14 millimeters | 0 millimeters | 14 millimeters | 20 millimeters | 0 millimeters | 0 millimeters | Antibacterial Pa zone of inhibition (Pseudomonas aeruginosa; 1 mM): 0 millimeters; Antibacterial Ec zone of inhibition (Escherichia coli; 0.1 mM): 0 millimeters; Antibacterial Ec zone of inhibition (Escherichia coli; 0.5 mM): 0 millimeters; Antibacterial Ec zone of inhibition (Escherichia coli; 1 mM): 0 millimeters; Antibacterial Bt zone of inhibition ([2]; 0.1 mM): 0 12.5 18 millimeters; Antibacterial Bt zone of inhibition ([2]; 0.5 mM): 0 12.5 18 millimeters; Antibacterial Bt zone of inhibition ([2]; 1 mM): 0 12.5 18 millimeters
CC(C)(C)c1ccc(OCc2nnc(-c3nc4ccccc4s3)o2)cc1 [HGN-836] | 0 millimeters | 0 millimeters | 7 millimeters | 0 millimeters | 0 millimeters | 11 millimeters | 0 millimeters | 0 millimeters | 0 millimeters | 0 millimeters | 0 millimeters | 0 millimeters | 0 millimeters | 0 millimeters | 0 millimeters | 0 millimeters | 0 millimeters | 13 millimeters | 0 millimeters | 0 millimeters | Antibacterial Pa zone of inhibition (Pseudomonas aeruginosa; 1 mM): 0 millimeters; Antibacterial Ec zone of inhibition (Escherichia coli; 0.1 mM): 0 NT millimeters; Antibacterial Ec zone of inhibition (Escherichia coli; 0.5 mM): 0 NT millimeters; Antibacterial Bt zone of inhibition ([2]; 0.1 mM): 0 15 18 millimeters; Antibacterial Bt zone of inhibition ([2]; 0.5 mM): 0 15 18 millimeters; Antibacterial Bt zone of inhibition ([2]; 1 mM): 0 15 18 millimeters
Cc1cccc(OCc2nnc(-c3nc4ccccc4s3)o2)c1 [HGN-837] | 0 millimeters | 0 millimeters | 0 millimeters | 0 millimeters | 11 millimeters | 17 millimeters | 0 millimeters | 0 millimeters | 0 millimeters | 0 millimeters | 0 millimeters | 0 millimeters | 0 millimeters | 6 millimeters | 10 millimeters | 0 millimeters | 13 millimeters | 19 millimeters | 0 millimeters | 0 millimeters | Antibacterial Pa zone of inhibition (Pseudomonas aeruginosa; 1 mM): 0 millimeters; Antibacterial Ec zone of inhibition (Escherichia coli; 0.1 mM): 0 millimeters; Antibacterial Ec zone of inhibition (Escherichia coli; 0.5 mM): 10 millimeters; Antibacterial Ec zone of inhibition (Escherichia coli; 1 mM): 17 millimeters; Antibacterial Bt zone of inhibition [2]: 0 13 19.5 millimeters
